Assay results published in patent publication US12590062B2, “PD-1/PD-L1 inhibitors” (Gilead Sciences, Inc., priority 2017, dated 2026).
pEC50, pIC50: −log10 of the molar value.

Experiments:
PD-1/PD-L1 interaction = target: T1, PD-1/PD-L1 interaction (Homo sapiens, UniProt Q9NZQ7); assay: PD-1/PD-L1 NFAT reporter co-culture assay; type: cell-based; details: Jurkat PD-1 NFAT-luciferase cells co-cultured with aAPC-PD-L1 CHO cells, 6 hrs at 37° C.; read-out: EC50 NFAT Luciferase
T1 construct: expressed in transfected cells; host or cells: CHO cells (aAPC-PD-L1) co-cultured with Jurkat cells overexpressing PD-1 and an NFAT-luciferase reporter
Outline: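 Jurkat cells overexpressing PD-1 with NFAT-luciferase mixed with compounds and plated onto CHO aAPCs expressing anti-CD3 and PD-L1, RPMI with 2% FBS. Co-culture 6 h at 37 °C; luminescence read with ONE-Glo. EC50 from four-parameter fit.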

PD-1/PD-L1 = PD-1/PD-L1 (Homo sapiens, UniProt Q9NZQ7); assay: PD-1/PD-L1 biochemical protein-protein interaction assay (ALPHA); type: binding; details: 0.3 nM His tagged PD-L1, 2.5 nM biotinylated Fc-PD-1, 60 minutes at 25° C., read-out: IC50 PD-L1-PD-1 Alpha IC50-mono PD-L1-fcP-D1
Description: Biological Activity PD-1/PD-L1 & CTLA/CD80 Biochemical Protein-Protein Interaction Assay
Compounds were tested in biochemical protein-protein interaction assays to determine if they can specifically block the interaction between the extracellular domains of PD-1/PD-L1 or CTLA/CD80. Binding of the protein pairs is measured using a bead based Amplified Luminescent Proximity Homogeneous Assay (ALPHA) platform. Binding of each protein pair results in proximity of the donor and acceptor beads which leads to an increase in ALPHA signal. Disruption of the protein-protein interaction with a test compound results in a decrease in ALPHA signal. Assays are performed in 25 mM Hepes (pH 7.4), 150 mM NaCl, 3.4 mM EDTA, 0.005% Tween 20, and 0.01% BSA. Final protein concentration in the assays were 0.3 nM (His tagged PD-L1), 2.5 nM (biotinylated Fc-PD-1), 1 nM (His tagged CTLA4) and 1 nM (biotinylated CD80). After an assay reaction time of 60 minutes at 25° C., binding was measured with addition of 20 μg/mL ALPHA assay acceptor beads (anti-His coated) and […] ALPHA assay donor beads (streptavidin coated). IC50 values were calculated from the fit of the dose-response curves to a four-parameter equation. Representative data are shown below in Table 1.

Chain of PD-1/PD-L1 (Q9NZQ7 19-238 limits assumed): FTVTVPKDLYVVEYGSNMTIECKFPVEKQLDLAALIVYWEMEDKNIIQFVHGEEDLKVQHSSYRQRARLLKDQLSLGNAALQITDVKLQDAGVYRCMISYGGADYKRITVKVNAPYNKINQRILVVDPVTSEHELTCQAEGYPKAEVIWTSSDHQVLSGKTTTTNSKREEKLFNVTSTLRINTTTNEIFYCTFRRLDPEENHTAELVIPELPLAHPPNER
T1 sequence (Q9NZQ7 19-290): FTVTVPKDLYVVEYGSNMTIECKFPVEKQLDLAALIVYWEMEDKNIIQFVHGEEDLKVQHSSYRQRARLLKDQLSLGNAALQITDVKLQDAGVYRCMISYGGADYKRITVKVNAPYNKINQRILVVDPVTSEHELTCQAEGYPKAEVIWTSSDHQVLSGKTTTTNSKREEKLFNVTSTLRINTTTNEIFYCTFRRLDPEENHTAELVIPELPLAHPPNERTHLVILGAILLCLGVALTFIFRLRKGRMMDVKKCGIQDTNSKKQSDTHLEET

Row | SMILES | pEC50 (PD-1/PD-L1 interaction) | pIC50 (PD-1/PD-L1)
1 | COc1nc(O[C@H]2CCc3c(-c4cccc5c4CC[C@@H]5Oc4nc(OC)c(CNC[C@H](O)CC(=O)O)cc4Br)cccc32)c(Br)cc1CNC[C@H](O)CC(=O)O [Example 3, (3R,3′R)-4,4′-((((((1S,1′S)-2,2′,3,3′-tetrahydro-1H,1′H-[4,4′-biindene]-1,1′-diyl)bis(oxy))bis(5-bromo-2-methoxypyridine-6,3-diyl))bis(methylene))bis(azanediyl))bis(3-hydroxybutanoic acid)] | 7.32 | 9.70
2 | CCNCc1cc(Cl)c(OCc2cccc(-c3cccc(COc4cc(OCc5cncc(C#N)c5)c(CNCC)cc4Cl)c3C)c2C)cc1OCc1cncc(C#N)c1 [Example 12, 5,5′-((((((2,2′-dimethyl-[1,1′-biphenyl]-3,3′-diyl)bis(methylene))bis(oxy))bis(4-chloro-6-((ethylamino)methyl)-3,1-phenylene))bis(oxy))bis(methylene))dinicotinonitrile] | 6.19 | 7.95
3 | COc1nc(OCc2cccc(-c3cccc(COc4ccc(CN[C@H](CO)C(=O)O)c(OC)n4)c3C)c2C)ccc1CN[C@H](CO)C(=O)O [Example 14] | 4.88 | 8.68
4 | Cc1c(COc2cc(OCc3cncc(C#N)c3)c(CN3CCCCC3)cc2Cl)cccc1-c1cccc(COc2cc(OCc3cncc(C#N)c3)c(CN3CCCCC3)cc2Cl)c1C [Example 15, 5,5′-((((((2,2′-dimethyl-[1,1′-biphenyl]-3,3′-diyl)bis(methylene))bis(oxy))bis(4-chloro-6-(piperidin-1-ylmethyl)-3,1-phenylene))bis(oxy))bis(methylene))dinicotinonitrile] | 5.24 | 5.90
5 | COc1nc(OCc2cccc(-c3cccc(COc4nc(OC)c(C5COCCN5)cc4Br)c3C)c2C)c(Br)cc1C1COCCN1 (stereo not drawn) [Example 249, 3,3′-((((2,2′-dimethyl-[1,1′-biphenyl]-3,3′-diyl)bis(methylene))bis(oxy))bis(5-bromo-2-methoxypyridine-6,3-diyl))dimorpholine] | ≤ 4.30 | 
6 | COc1nc(OCc2cccc(-c3cccc(COc4nc(OC)c(CN5CC(O)C5)cc4Br)c3C)c2C)c(Br)cc1CN1CC(O)C1 [Example 255, 1,1′-(((((2,2′-dimethyl-[1,1′-biphenyl]-3,3′-diyl)bis(methylene))bis(oxy))bis(5-bromo-2-methoxypyridine-6,3-diyl))bis(methylene))bis(azetidin-3-ol)] | ≤ 4.30 | 
7 | CNC(=O)C1CN(Cc2cc(Br)c(OCc3cccc(-c4cccc(COc5nc(OC)c(CN6CC(C(=O)NC)C6)cc5Br)c4C)c3C)nc2OC)C1 [Example 256, 1,1′-(((((2,2′-dimethyl-[1,1′-biphenyl]-3,3′-diyl)bis(methylene))bis(oxy))bis(5-bromo-2-methoxypyridine-6,3-diyl))bis(methylene))bis(N-methylazetidine-3-carboxamide)] | 6.12 | 
8 | Cc1c(COc2cc(OCc3cncc(C#N)c3)c(CN3CC[C@H]3CO)cc2Br)cccc1-c1cccc(COc2cc(OCc3cncc(C#N)c3)c(CN3CC[C@H]3CO)cc2Br)c1C [Example 260, 5,5′-((((((2,2′-dimethyl-[1,1′-biphenyl]-3,3′-diyl)bis(methylene))bis(oxy))bis(4-bromo-6-(((S)-2-(hydroxymethyl)azetidin-1-yl)methyl)-3,1-phenylene))bis(oxy))bis(methylene))dinicotinonitrile] | 6.33 | 
9 | COc1nc(OCc2cccc(-c3cccc(COc4nc(OC)c(CNCCN5CCCS5(=O)=O)cc4Br)c3C)c2C)c(Br)cc1CNCCN1CCCS1(=O)=O [Example 264, 2,2′-(((((((2,2′-dimethyl-[1,1′-biphenyl]-3,3′-diyl)bis(methylene))bis(oxy))bis(5-bromo-2-methoxypyridine-6,3-diyl))bis(methylene))bis(azanediyl))bis(ethane-2,1-diyl))bis(isothiazolidine 1,1-dioxide)] | 5.89 | 
10 | COc1nc(OCc2cccc(-c3cccc(COc4nc(OC)c(CNCCNS(C)(=O)=O)cc4Br)c3C)c2C)c(Br)cc1CNCCNS(C)(=O)=O [Example 266, N,N′-(((((((2,2′-dimethyl-[1,1′-biphenyl]-3,3′-diyl)bis(methylene))bis(oxy))bis(5-bromo-2-methoxypyridine-6,3-diyl))bis(methylene))bis(azanediyl))bis(ethane-2,1-diyl))dimethanesulfonamide] | 5.86 | 
11 | COc1nc(OCc2cccc(-c3cccc(COc4nc(OC)c(CN(C)CCN5CCOCC5)cc4Br)c3C)c2C)c(Br)cc1CN(C)CCN1CCOCC1 [Example 268, N,N′-(((((2,2′-dimethyl-[1,1′-biphenyl]-3,3′-diyl)bis(methylene))bis(oxy))bis(5-bromo-2-methoxypyridine-6,3-diyl))bis(methylene))bis(N-methyl-2-morpholinoethan-1-amine)] | 6.00 | 
12 | COc1nc(OCc2cccc(-c3cccc(COc4nc(OC)c(CN5CCNC(=O)C5)cc4Br)c3C)c2C)c(Br)cc1CN1CCNC(=O)C1 [Example 270, 4,4′-(((((2,2′-dimethyl-[1,1′-biphenyl]-3,3′-diyl)bis(methylene))bis(oxy))bis(5-bromo-2-methoxypyridine-6,3-diyl))bis(methylene))bis(piperazin-2-one)] | ≤ 4.30 | 
13 | CNC(=O)[C@](C)(CO)NCc1cc(Br)c(OCc2cccc(-c3cccc(COc4nc(OC)c(CN[C@@](C)(CO)C(=O)NC)cc4Br)c3C)c2C)nc1OC [Example 274, (2S,2′S)-2,2′-((((((2,2′-dimethyl-[1,1′-biphenyl]-3,3′-diyl)bis(methylene))bis(oxy))bis(5-bromo-2-methoxypyridine-6,3-diyl))bis(methylene))bis(azanediyl))bis(3-hydroxy-N,2-dimethylpropanamide)] | 5.92 | 
14 | Cc1c(OC(F)(F)c2ccc(CNCC(=O)O)cc2)cccc1-c1cccc(OC(F)(F)c2ccc(CNCC(=O)O)cc2)c1C [Example 278, 2,2′-((((((2,2′-dimethyl-[1,1′-biphenyl]-3,3′-diyl)bis(oxy))bis(difluoromethylene))bis(4,1-phenylene))bis(methylene))bis(azanediyl))diacetic acid] | ≤ 4.30 | 
15 | Cc1c(COc2cc(OCc3cccc(C#N)c3)c(CNCCO)cc2Cl)cccc1-c1cccc(COc2cc(OCc3cccc(C#N)c3)c(CNCCO)cc2Cl)c1C [Example 284, 3,3′-((((((2,2′-dimethyl-[1,1′-biphenyl]-3,3′-diyl)bis(methylene))bis(oxy))bis(4-chloro-6-(((2-hydroxyethyl)amino)methyl)-3,1-phenylene))bis(oxy))bis(methylene))dibenzonitrile] | 5.84 | 
16 | COc1nc(OCc2cccc(-c3cccc(COc4ccc(CNC[C@@H](O)CC(=O)O)c(OC)n4)c3F)c2C)ccc1CNC[C@@H](O)CC(=O)O [Example 285, (3S,3′S)-4,4′-((((((2-fluoro-2′-methyl-[1,1′-biphenyl]-3,3′-diyl)bis(methylene))bis(oxy))bis(2-methoxypyridine-6,3-diyl))bis(methylene))bis(azanediyl))bis(3-hydroxybutanoic acid)] | 5.01 | 
17 | Cc1c(COc2cc(OCc3cncc(C#N)c3)c(CNC[C@@H](O)CC(=O)O)cc2Cl)cccc1-c1cccc(-c2nc3ccc(CNC[C@@H](O)CC(=O)O)cc3s2)c1C [Example 286, (S)-4-(((2-(3′-((4-((((S)-3-carboxy-2-hydroxypropyl)amino)methyl)-2-chloro-5-((5-cyanopyridin-3-yl)methoxy)phenoxy)methyl)-2,2′-dimethyl-[1,1′-biphenyl]-3-yl)benzo[d]thiazol-6-yl)methyl)amino)-3-hydroxybutanoic acid] | 6.63 | 
18 | Cc1c(COc2cc(OCc3cncc(C#N)c3)c(CNCCO)cc2Cl)cccc1-c1cccc(-c2ccc(CNCCCC(=O)O)cc2)c1C [Example 334, 4-(((3″-((2-chloro-5-((5-cyanopyridin-3-yl)methoxy)-4-(((2-hydroxyethyl)amino)methyl)phenoxy)methyl)-2′,2″-dimethyl-[1,1′:3′,1″-terphenyl]-4-yl)methyl)amino)butanoic acid] |  | 9.84
19 | Cc1c(COc2nc(OCc3cc(C#N)cc(C#N)c3)c(CNC[C@@H](O)CC(=O)O)cc2Cl)cccc1-c1cccc(-c2ccc(OCCNCCO)cc2)c1C [Example 472] | 7.29 | 
20 | N#Cc1cncc(COc2nc(OCc3cccc(-c4cccc(COc5nc(OCc6cncc(C#N)c6)c(CNC[C@@H](O)CC(=O)O)cc5Br)c4Cl)c3Cl)c(Br)cc2CNC[C@@H](O)CC(=O)O)c1 [Example 563] |  | 9.50
